Results on 52 compounds are retold here after PubChem BioAssay AID1996.

Structures are written as SMILES. Values after ≈ are worked out from the molar mass of the structure shown. Bounds are passed on as bounds.

The conditions of this data set: buffer; pH 7.4; 200.0 µM.
Compound `COCC(C)NC(=O)c1ccc2c(c1)S(=O)(=O)c1ccccc1C2=O` (configuration not stated) yielded a kinetic solubility of over 53.9 µg/mL.

`Cc1onc(-c2c(F)cccc2Cl)c1C(=O)c1ccccc1O`: the kinetic solubility amounted to 2.6 µg/mL (≈ 7.84 µM).

Turning to `CCOC(=O)C1=C(COC(=O)c2cccc(Cl)c2)NC(=O)NC1C` (configuration not stated), the kinetic solubility stood at 46.2 µg/mL (≈ 131 µM).

For the compound `O=C(C1CC1)N1CCN(Cc2ccccc2)CC1`, the kinetic solubility stood at 33.5 µg/mL (≈ 137 µM).

Compound `Cc1ccccc1-c1nc2ccc(Cl)cc2c(=O)n1O` showed a kinetic solubility of over 43 µg/mL.

`Cc1ccc2c(c1)N(CC(=O)N1CCCCCC1)C(=O)C(C)O2` (configuration not stated) returned a kinetic solubility of over 47.5 µg/mL.

`COc1ccc(CNC(=O)CCC(=O)c2ccc(F)cc2)cc1OC` gave a solubility (kinetic) of over 51.8 µg/mL.

In the case of `CC(=O)Nc1ccc(Nc2ccc([N+](=O)[O-])cn2)cc1`, the kinetic solubility was 15.8 µg/mL (≈ 58 µM).

The compound `CN1CCN(Cc2nnc(-c3ccccc3)o2)CC1` gave a solubility (kinetic) of over 38.7 µg/mL.

Regarding `Cc1ccc2[nH]c(=O)c3cc(C(=O)NCC4CCCO4)sc3c2c1` (configuration not stated), the kinetic solubility turned out to be 1 µg/mL (≈ 2.92 µM).

The compound `CC(C)C(=O)Nc1ccc(Oc2ccc3c(c2)C(=O)NC3=O)cc1` yielded a kinetic solubility of under 0.3 µg/mL.

The compound `O=C(COC(=O)CCN1C(=O)C2CC=CCC2C1=O)Nc1ccc([N+](=O)[O-])cc1` (configuration not stated) registered a kinetic solubility of over 60.2 µg/mL.

Compound `COc1ccc(CN2CC(C(N)=O)Oc3ccccc32)cc1F` (configuration not stated) had a solubility (kinetic) of 35.6 µg/mL (≈ 113 µM).

`O=C(O)CCCCCNCc1c(Cl)cccc1Cl` showed a kinetic solubility of 41.6 µg/mL (≈ 143 µM).

In turn, `O=C(COC(=O)c1ccc(Cl)nc1)NCCc1ccccc1` gave a solubility (kinetic) of 45.5 µg/mL (≈ 143 µM). This solubility kinetic and that of the compound before are within 1.5-fold of each other.

Take `Cc1onc(C(=O)Nc2ccccc2C(F)(F)F)c1[N+](=O)[O-]`: the kinetic solubility was over 47.3 µg/mL.

The compound `CC(=O)Nc1ccc(C(=O)OCC(=O)NCc2ccc3c(c2)OCO3)cc1` returned a kinetic solubility of 8.1 µg/mL (≈ 21.9 µM).

The compound `CNC(=O)c1ccccc1S(=O)c1ccccc1COC(C)=O` (configuration not stated) gave a kinetic solubility of over 49.7 µg/mL.

In turn, `COc1cc(NC(=O)c2ccccc2)c(OC)cc1NC(=O)Cc1ccc(C)cc1` had a kinetic solubility of under 0.4 µg/mL.

On to `Cn1ccnc1C(=O)c1ccccc1Cl`, for which the solubility (kinetic) is over 33.1 µg/mL.

In turn, `Cn1cccc1C(=O)NC(=O)COC(=O)CCNS(=O)(=O)c1ccc(Cl)cc1` returned a solubility (kinetic) of 13.8 µg/mL (≈ 32.3 µM).

For the compound `COc1ccc(OC)c(C(=O)/C=C/c2cccnc2)c1`, the kinetic solubility was over 40.4 µg/mL.

`O=C(O)c1cc(-c2ccc(Br)s2)nc2ccccc12`: the kinetic solubility is over 50.1 µg/mL.

In turn, `CCN(CC)S(=O)(=O)c1ccc(OC(C)C)c(N)c1` showed a kinetic solubility of over 43 µg/mL.

`C=CCNC(=O)N1CCCC(C(=O)c2cccc(OC(C)C)c2)C1` (configuration not stated) came in with a kinetic solubility of over 49.6 µg/mL.

The compound `Cc1ccc(C2SCC(=O)N2c2ccccc2)cc1` (configuration not stated) displayed a kinetic solubility of over 40.4 µg/mL.

For the compound `CC(C)CNC(C)C(=O)Nc1ccc(S(N)(=O)=O)cc1` (configuration not stated), the kinetic solubility was over 44.9 µg/mL.

Regarding `O=C(NC1CC1)c1ccc(CSCc2ccccc2Cl)o1`, the kinetic solubility was over 48.3 µg/mL.

`O=C(NCCCl)Nc1ccccc1NS(=O)(=O)c1cccs1` had a solubility (kinetic) of over 54 µg/mL.

`O=C1CC(=O)N(c2cccc(Br)c2)C(=O)N1` gave a kinetic solubility of 39.2 µg/mL (≈ 138 µM).

On to `O=C(c1ccc(Cl)s1)N1CCN(S(=O)(=O)c2ccc(Cl)cc2)CC1`, for which the kinetic solubility turned out to be 3.2 µg/mL (≈ 7.89 µM).

As to `Cc1noc(C)c1COc1cccc(C(=O)NC(C)(C)C)c1`, the solubility (kinetic) is over 45.4 µg/mL.

`O=C(CCOc1ccccc1)Nc1ccccc1F` had a kinetic solubility of 37.4 µg/mL (≈ 144 µM).

Consider `CCOC(=O)CN1C(=O)CC(c2ccccc2)C1=O` (configuration not stated), for which the solubility (kinetic) is over 39.2 µg/mL.

The compound `CCN1CCc2c(OCC(=O)Nc3cccc(C)c3)cccc2C1=O` had a kinetic solubility of over 50.8 µg/mL.

With `CN(C)CCN(C(=O)c1ccc2ccccc2c1)c1nc2ccc(Br)cc2s1.Cl`, the solubility (kinetic) is 3.6 µg/mL.

`CC(=O)c1ccc(NC(=O)CCOc2cc(C)ccc2C)cc1` had a kinetic solubility of 5 µg/mL (≈ 16.1 µM).

For the compound `CCN(CC)C(=S)Nc1c(C)n(C)n(-c2ccccc2)c1=O`, the kinetic solubility was over 47.8 µg/mL.

`CC(C)(C)C(=O)/C=C1\NC(=O)CS1` had a solubility (kinetic) of over 29.9 µg/mL.

Compound `O=C(Nc1c(S(=O)(=O)c2ccccc2)csc1Br)c1ccccc1Cl` showed a kinetic solubility of 42.9 µg/mL (≈ 93.9 µM).

The compound `CSc1ncccc1C(=O)Nc1cccc(S(=O)(=O)N2CCOCC2)c1` gave a kinetic solubility of over 59 µg/mL.

In the case of `O=C(COc1ccc(Cl)cc1Cl)N1CCNC1=O`, the solubility (kinetic) turned out to be 31 µg/mL (≈ 107 µM).

In the case of `CCOC(=O)CC(=O)CSc1nc(CC)c(C)cc1C#N`, the kinetic solubility was over 46 µg/mL.

Regarding `Cc1cc(=O)[nH]c(Nc2ccccc2C)n1`, the solubility (kinetic) was over 32.3 µg/mL.

Take `COc1ccc(OC)c(-n2c(SCC(=O)NCC3CCCO3)nc3ccccc3c2=O)c1` (configuration not stated): the kinetic solubility is over 68.3 µg/mL.

`COC(=O)c1ccccc1NC(=S)N1CCN(c2ccccc2)CC1` yielded a solubility (kinetic) of 13.4 µg/mL (≈ 37.7 µM).

For the compound `COc1ccc2[nH]cc(CCNC(=S)NCCc3ccccc3)c2c1`, the solubility (kinetic) came to 26.3 µg/mL (≈ 74.4 µM).

As to `c1ccc2c(c1)CSc1ccccc1N2`, the kinetic solubility is 6.8 µg/mL (≈ 31.9 µM).

`Cc1cccc(-c2noc(-c3c(C)noc3C)n2)c1` came in with a solubility (kinetic) of under 0.2 µg/mL.

As for `CCOc1ccccc1C(=O)NCCNC(=O)c1ccccc1OCC`, the kinetic solubility was found to be 40.6 µg/mL (≈ 114 µM).

Regarding `C=C(c1ccccc1Cl)[n+]1ccccc1.F[B-](F)(F)F`, the kinetic solubility is over 45.5 µg/mL.

As to `COc1ccc(NC(=O)CCC(=O)N2CCCC2)c([N+](=O)[O-])c1`, the solubility (kinetic) is over 48.2 µg/mL.

Usually solubility (kinetic) stands for solubility judged after dilution from a stock solution rather than from solid.
